Assay results taken from patent US9828623B2 (priority 2014, dated 2017).

Test system: cDNA probe
Conditions: pH 7.5

Substance: TTTTTTTTTTTTTTTTTTTT [T20]
- event mean residence time: 0.12 ± 0.01 ms

Substance: AAAAAAAAAAAAAAAAAAAA [A20]
- event mean residence time: 11.7 ± 0.2 ms

Substance: 5′-GGATTATGGTGAAATATTGA-3′ [aLF-2]
- event mean residence time: 57.4 ± 2.5 ms

Substance: 5′-GGATTATTGTGAAATATTGA-3′ [aLF-1]
- event mean residence time: 342 ± 35 ms
